This passage reports IC50 results from US8367658B2, “Pyrazin-2-yl-pyridin-2-yl-amine and pyrazin-2-yl-pyrimidin-4-yl-amine compounds and their use” (Cancer Research Technology Limited, priority 2007, dated 2013).

As usually defined, the pIC50 is −log10 of the IC50, conventionally taken in molar units.

pIC50: −log10 of the molar value. Several values for one entry are separate records, joined by “and”; a condition that tells them apart may be missing. Equal values may be shown once.

The target in this test is T1, CHK1 (Homo sapiens, UniProt O14757).
T1 sequence (O14757 1-476): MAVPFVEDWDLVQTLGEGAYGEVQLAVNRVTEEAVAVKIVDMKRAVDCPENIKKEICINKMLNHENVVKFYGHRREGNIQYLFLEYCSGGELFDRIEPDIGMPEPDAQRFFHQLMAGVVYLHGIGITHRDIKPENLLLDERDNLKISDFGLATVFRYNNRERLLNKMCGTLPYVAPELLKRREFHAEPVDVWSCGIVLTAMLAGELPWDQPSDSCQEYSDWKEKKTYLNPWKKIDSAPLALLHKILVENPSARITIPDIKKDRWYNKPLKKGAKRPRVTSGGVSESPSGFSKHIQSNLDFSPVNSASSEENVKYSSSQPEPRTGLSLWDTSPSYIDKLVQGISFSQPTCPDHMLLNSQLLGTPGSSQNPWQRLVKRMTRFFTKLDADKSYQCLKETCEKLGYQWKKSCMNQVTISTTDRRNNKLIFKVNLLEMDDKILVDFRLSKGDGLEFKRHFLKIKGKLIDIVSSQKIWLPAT
The test can be described thus: CHK1 kinase function inhibition assay (DELFIA, phosphorylation of a CDC25C peptide). In kind it is biochemical. The conditions noted are these: CHK1 1 nM, ATP 30 μM, 30 minutes at room temperature. As for the experimental part:
Measurement of Inhibition of CHK1 Kinase Function
CHK1 kinase function was measured in a DELFIA® assay in order to monitor phosphorylation of a CDC25C peptide using a specific phospho antibody.
The reaction mixture was incubated for 30 minutes at room temperature and then stopped by the addition of buffer (125 μL) containing 40 mM EDTA, 0.05% Tween 20, 0.1% BSA in TBS (10× concentrate, Sigma). An aliquot (100 μL) of the stopped reaction mixture was transferred to a black neutravidin-coated plate (Perbio) and incubated for 1 hour on a shaker (Titertek, Flow Laboratories) at room temperature. […] The plates were washed a further four times with wash buffer before the addition of enhancement solution (100 μL/well, PerkinElmer Life Sciences).
The compound `COC(=O)c1cnc(Nc2cnc(C#N)cn2)cc1N(C)CC1CCNCC1` [Compound Y-021, Methyl 6-(5-cyanopyrazin-2-ylamino)-4-(methyl(piperidin-4-ylmethyl)amino)nicotinate] gave a negative-log IC50 (pIC50) of no less than 7.00. Compound `CN1CCC(Nc2cc(Nc3cnc(C#N)cn3)ncc2C(=O)O)CC1` [Compound Y-104, 6-(5-Cyanopyrazin-2-ylamino)-4-(1-methylpiperidin-4-ylamino)nicotinic acid] gave a pIC50 of 5.00 to 6.00.

For `N#Cc1cnc(Nc2cc(NCC3CCNCC3)c(N)cn2)cn1` [Compound Y-001, 5-(5-Amino-4-(piperidin-4-ylmethylamino)pyridin-2-ylamino)pyrazine-2-carbonitrile], the negative-log IC50 (pIC50) is ≥ 6.00 and 6.00 to 7.00. Next, `COCCN(C)C(=O)c1cnc(Nc2cnc(C#N)cn2)cc1NCC1CCNCC1` [Compound Y-091, 6-(5-Cyanopyrazin-2-ylamino)-N-(2-methoxyethyl)-N-methyl-4-(piperidin-4-ylmethylamino)nicotinamide]: 6.00 to 7.00; `CCCN1C2CCC1CC(Nc1cc(Nc3cnc(C#N)cn3)ncc1C(=O)OC)C2` (stereo not drawn) [Compound Y-079, Methyl 6-(5-cyanopyrazin-2-ylamino)-4-(8-propyl-8-azabicyclo[3.2.1]octan-3-ylamino)nicotinate]: no less than 7.00; `CC(C)(CO)Nc1cc(Nc2cnc(C#N)cn2)ncn1` [Compound Z-039, 5-(6-(1-Hydroxy-2-methylpropan-2-ylamino)pyrimidin-4-ylamino)pyrazine-2-carbonitrile]: ≥ 6.00 and 6.00 to 7.00.

For `N#Cc1cnc(Nc2cc(NCC3CCNCC3)c(C(=O)N3CCOCC3)cn2)cn1` [Compound Y-089, 5-(5-(Morpholine-4-carbonyl)-4-(piperidin-4-ylmethylamino)pyridin-2-ylamino)pyrazine-2-carbonitrile], the pIC50 is 5.00 to 6.00. `N#Cc1cnc(Nc2cc(NC3CCCCC3)c(N)cn2)cn1` [Compound Y-045, 5-(5-Amino-4-(cyclohexylamino)pyridin-2-ylamino)pyrazine-2-carbonitrile] had a pIC50 of 5.00 to 6.00. Next, `COCc1ccc(-c2cnc(Nc3cnc(C#N)cn3)cc2NC[C@@H]2CNCCO2)cc1` [Compound Y-148, (S)-5-(5-(4-(Methoxymethyl)phenyl)-4-(morpholin-2-ylmethylamino)pyridin-2-ylamino)pyrazine-2-carbonitrile]: no less than 7.00; `CN1CCC(Nc2cc(Nc3cnc(C#N)cn3)ncc2Br)CC1` [Compound Y-110, 5-(5-Bromo-4-(1-methylpiperidin-4-ylamino)pyridin-2-ylamino)pyrazine-2-carbonitrile]: no less than 7.00. Next, `N#Cc1cnc(Nc2cc(NCC3CCNCC3)c(-c3ccc(OCCO)cc3)cn2)cn1` [Compound Y-129, 5-(5-(4-(2-hydroxyethoxy)phenyl)-4-(piperidin-4-ylmethylamino)pyridin-2-ylamino)pyrazine-2-carbonitrile]: no less than 7.00. Next, `N#Cc1cnc(Nc2cc(NCC3CCNCC3)c(C(=O)Nc3ccc(N4CCOCC4)cc3)cn2)cn1` [Compound Y-100, 6-(5-Cyanopyrazin-2-ylamino)-N-(4-morpholinophenyl)-4-(piperidin-4-ylmethylamino)nicotinamide]: no less than 7.00. Regarding `COCc1ccc(-c2cnc(Nc3cnc(C#N)cn3)cc2NCC2CCNCC2)cc1` [Compound Y-127, 5-(5-(4-(Methoxymethyl)phenyl)-4-(piperidin-4-ylmethylamino)pyridin-2-ylamino)pyrazine-2-carbonitrile], the pIC50 is no less than 7.00. In turn, `COCCCc1cnc(Nc2cnc(C#N)cn2)cc1NCC1CCNCC1` [Compound Y-141, 5-(5-(3-methoxypropyl)-4-(piperidin-4-ylmethylamino)pyridin-2-ylamino)pyrazine-2-carbonitrile] showed a pIC50 of no less than 7.00.

`N#Cc1cnc(Nc2cc(NCC3CCNCC3)c(C(=O)Nc3ccc(OCCN4CCOCC4)cc3)cn2)cn1` [Compound Y-098, 6-(5-Cyanopyrazin-2-ylamino)-N-(4-(2-morpholinoethoxy)phenyl)-4-(piperidin-4-ylmethylamino)nicotinamide]: the negative-log IC50 (pIC50) is no less than 7.00. Turning to `N#Cc1cnc(Nc2cc(NCC[C@H](N)C(=O)Nc3ccccc3)ncn2)cn1` [Compound Z-026, (S)-2-Amino-4-(6-(5-cyanopyrazin-2-ylamino)pyrimidin-4-ylamino)-N-phenylbutanamide], the pIC50 is ≥ 6.00 and 6.00 to 7.00. Regarding `CN1CCC(Nc2cc(Nc3cnc(C#N)cn3)ncc2C(=O)Nc2ccccc2)CC1` [Compound Y-103, 6-(5-Cyanopyrazin-2-ylamino)-4-(1-methylpiperidin-4-ylamino)-N-phenylnicotinamide], the negative logarithm of the IC50 (pIC50) was no less than 7.00. Compound `COCc1ccc(-c2cnc(Nc3cnc(C#N)cn3)cc2NC2CCN(C)CC2)cc1` [Compound Y-119, 5-(5-(4-(Methoxymethyl)phenyl)-4-(1-methylpiperidin-4-ylamino)pyridin-2-ylamino)pyrazine-2-carbonitrile] had a negative-log IC50 (pIC50) of no less than 7.00. To `CN1CCC(Nc2cc(Nc3cnc(C#N)cn3)ncc2-c2ccsc2)CC1` [Compound Y-112, 5-(4-(1-methylpiperidin-4-ylamino)-5-(thiophen-3-yl)pyridin-2-ylamino)pyrazine-2-carbonitrile] belongs no less than 7.00; to `N#Cc1cnc(Nc2cc(NCC3CCCNC3)c(N3CCC(O)C3)cn2)cn1` (stereo in doubt) [Compound Y-061, 5-(5-(3-Hydroxypyrrolidin-1-yl)-4-((R)-piperidin-3-ylmethylamino)pyridin-2-ylamino) pyrazine-2-carbonitrile], no less than 7.00; to `CC(Nc1cc(Nc2cnc(C#N)cn2)ncn1)C1CCNCC1` (stereo not drawn) [Compound Z-032, 5-(6-(1-(Piperidin-4-yl)ethylamino)pyrimidin-4-ylamino)pyrazine-2-carbonitrile], 5.00 to 6.00. To `N#Cc1cnc(Nc2cc(NC3CCNCC3)ncn2)cn1` [Compound Z-012, 5-(6-(Piperidin-4-ylamino)pyrimidin-4-ylamino)pyrazine-2-carbonitrile] belongs ≥ 6.00 and 6.00 to 7.00; to `COC(=O)c1cnc(Nc2cnc(C#N)cn2)cc1NCC1(C)CCNCC1` [Compound Y-026, Methyl 6-(5-cyanopyrazin-2-ylamino)-4-((4-methylpiperidin-4-yl)methylamino)nicotinate], no less than 7.00; to `N#Cc1cnc(Nc2cc(NCC3CCCNC3)ncn2)cn1` (stereo not drawn) [Compound Z-022, 5-(6-(Piperidin-3-ylmethylamino)pyrimidin-4-ylamino)pyrazine-2-carbonitrile], ≥ 6.00 and 6.00 to 7.00. Regarding `COCCCc1cnc(Nc2cnc(C#N)cn2)cc1NC[C@H]1CNCCO1` [Compound Y-159, (R)-5-(5-(3-Methoxypropyl)-4-(morpholin-2-ylmethylamino)pyridin-2-ylamino)pyrazine-2-carbonitrile], the pIC50 is no less than 7.00. To `COC(=O)c1cnc(Nc2cnc(C#N)cn2)cc1NC1CC(C)(C)N(C)C(C)(C)C1` [Compound Y-024, Methyl 6-(5-cyanopyrazin-2-ylamino)-4-(1,2,2,6,6-pentamethylpiperidin-4-ylamino)nicotinate] belongs ≥ 6.00 and 6.00 to 7.00; to `N#Cc1cnc(Nc2cc(NC[C@@H]3CCCNC3)c(N)cn2)cn1` [Compound Y-048, (R)-5-(5-Amino-4-(piperidin-3-ylmethylamino)pyridin-2-ylamino)pyrazine-2-carbonitrile], no less than 7.00.
